Test results taken from ChEMBL document CHEMBL1158270, “Triangulynes A-H and trangulynic acid, new cytotxic polyacetylenes from the marine sponge Pellina triangulata” (1996).

Tests used:
Assay type in all cases: functional
K562 = test: Cytotoxicity against human K562 cells
MOLT-4 = test: Cytotoxicity against human MOLT4 cells
SR = test: Cytotoxicity against human SR cells
A549 = test: Cytotoxicity against human A549 cells
EKVX = test: Cytotoxicity against human EKVX cells
HOP-92 = test: Cytotoxicity against human HOP92 cells
NCI-H226 = test: Cytotoxicity against human NCI-H226 cells
NCI-H322M = test: Cytotoxicity against human NCI-H322M cells
NCI-H460 = test: Cytotoxicity against human NCI-H460 cells
NCI-H522 = test: Cytotoxicity against human NCI-H522 cells
COLO 205 = test: Cytotoxicity against human COLO205 cells
HCT-116 = test: Cytotoxicity against human HCT116 cells
HT-29 = test: Cytotoxicity against human HT29 cells
KM12 = test: Cytotoxicity against human KM12 cells
SW-620 = test: Cytotoxicity against human SW620 cells
SF-268 = test: Cytotoxicity against human SF268 cells
SF-295 = test: Cytotoxicity against human SF295 cells
SF-539 = test: Cytotoxicity against human SF539 cells
SNB-19 = test: Cytotoxicity against human SNB19 cells
SNB-75 = test: Cytotoxicity against human SNB75 cells
U-251 = test: Cytotoxicity against human U251 cells
Malme-3M = test: Cytotoxicity against human MALME-3M cells
SK-MEL-2 = test: Cytotoxicity against human SK-MEL-2 cells
SK-MEL-28 = test: Cytotoxicity against human SK-MEL-28 cells
SK-MEL-5 = test: Cytotoxicity against human SK-MEL-5 cells
UACC-257 = test: Cytotoxicity against human UACC257 cells
UACC-62 = test: Cytotoxicity against human UACC62 cells
IGROV-1 = test: Cytotoxicity against human IGROV1 cells
OVCAR-3 = test: Cytotoxicity against human OVCAR-3 cells
OVCAR-4 = test: Cytotoxicity against human OVCAR4 cells
OVCAR-8 = test: Cytotoxicity against human OVCAR8 cells
SK-OV-3 = test: Cytotoxicity against human SKOV3 cells
A498 = test: Cytotoxicity against human A498 cells
ACHN = test: Cytotoxicity against human ACHN cells
CAKI-1 = test: Cytotoxicity against human Caki1 cells
RXF 393 = test: Cytotoxicity against human RXF393 cells
TK-10 = test: Cytotoxicity against human TK10 cells
DU-145 = test: Cytotoxicity against human DU145 cells
MCF7 = test: Cytotoxicity against human MCF7 cells
MDA-MB-231 = test: Cytotoxicity against human MDA-MB-231 cells
MDA-MB-435 = test: Cytotoxicity against human MDA-MB-435 cells
BT-549 = test: Cytotoxicity against human BT549 cells
T47D = test: Cytotoxicity against human T47D cells
786-0 = test: Cytotoxicity against human 786-0 cells
PC-3 = test: Cytotoxicity against human PC3 cells
[1] = read-out: pLC50 (the source's name) (converted)

SMILES: C#C[C@H](O)/C=C/CCCCCCCCCC/C=C\CCCCCCC[C@H](O)C#CC#CC#CCO [TRIANGULYNE A]
- GI50 (K562): 372 nM
- LC50 (K562): 37200 nM
- TGI (K562; read-out: pTGI (converted)): 2290 nM
- GI50 (MOLT-4): 209 nM
- CC50 (MOLT-4; [1]): 67600 nM
- TGI (MOLT-4; read-out: pTGI (converted)): 813 nM
- GI50 (SR): 182 nM
- LC50 (SR): 100000 nM
- TGI (SR; read-out: pTGI (converted)): 3240 nM
- GI50 (A549): 339 nM
- CC50 (A549; [1]): 47900 nM
- TGI (A549; read-out: pTGI (converted)): 5750 nM
- GI50 (EKVX): 871 nM
- CC50 (EKVX; [1]): 6760 nM
- TGI (EKVX; read-out: pTGI (converted)): 2400 nM
- GI50 (HOP-92): 324 nM
- CC50 (HOP-92; [1]): 15100 nM
- TGI (HOP-92; read-out: pTGI (converted)): 1200 nM
- GI50 (NCI-H226): 603 nM
- CC50 (NCI-H226; [1]): 8130 nM
- TGI (NCI-H226; read-out: pTGI (converted)): 1910 nM
- GI50 (NCI-H322M): 3310 nM
- CC50 (NCI-H322M; [1]): 57500 nM
- TGI (NCI-H322M; read-out: pTGI (converted)): 12000 nM
- GI50 (NCI-H460): 347 nM
- CC50 (NCI-H460; [1]): 42700 nM
- TGI (NCI-H460; read-out: pTGI (converted)): 1820 nM
- GI50 (NCI-H522): 151 nM
- CC50 (NCI-H522; [1]): 646 nM
- TGI (NCI-H522; read-out: pTGI (converted)): 380 nM
- GI50 (COLO 205): 200 nM
- LC50 (COLO 205): 2290 nM
- TGI (COLO 205; read-out: pTGI (converted)): 417 nM
- GI50 (HCT-116): 129 nM
- LC50 (HCT-116): 3470 nM
- TGI (HCT-116; read-out: pTGI (converted)): 661 nM
- GI50 (HT-29): 363 nM
- LC50 (HT-29): 3630 nM
- TGI (HT-29; read-out: pTGI (converted)): 1290 nM
- GI50 (KM12): 170 nM
- LC50 (KM12): 1100 nM
- TGI (KM12; read-out: pTGI (converted)): 380 nM
- GI50 (SW-620): 339 nM
- LC50 (SW-620): 9330 nM
- TGI (SW-620; read-out: pTGI (converted)): 1290 nM
- GI50 (SF-268): 347 nM
- CC50 (SF-268; [1]): 12900 nM
- TGI (SF-268; read-out: pTGI (converted)): 3890 nM
- GI50 (SF-295): 2880 nM
- CC50 (SF-295; [1]): 51300 nM
- TGI (SF-295; read-out: pTGI (converted)): 9550 nM
- GI50 (SF-539): 1100 nM
- CC50 (SF-539; [1]): 19100 nM
- TGI (SF-539; read-out: pTGI (converted)): 3310 nM
- GI50 (SNB-19): 3390 nM
- CC50 (SNB-19; [1]): 52500 nM
- TGI (SNB-19; read-out: pTGI (converted)): 12000 nM
- GI50 (SNB-75): 2000 nM
- CC50 (SNB-75; [1]): 15800 nM
- TGI (SNB-75; read-out: pTGI (converted)): 6610 nM
- GI50 (U-251): 813 nM
- CC50 (U-251; [1]): 5250 nM
- TGI (U-251; read-out: pTGI (converted)): 2190 nM
- GI50 (Malme-3M): 251 nM
- LC50 (Malme-3M): 1910 nM
- TGI (Malme-3M; read-out: pTGI (converted)): 646 nM
- GI50 (SK-MEL-2): 251 nM
- CC50 (SK-MEL-2; [1]): 7760 nM
- TGI (SK-MEL-2; read-out: pTGI (converted)): 891 nM
- GI50 (SK-MEL-28): 708 nM
- CC50 (SK-MEL-28; [1]): 12000 nM
- TGI (SK-MEL-28; read-out: pTGI (converted)): 2290 nM
- GI50 (SK-MEL-5): 72.4 nM
- CC50 (SK-MEL-5; [1]): 479 nM
- TGI (SK-MEL-5; read-out: pTGI (converted)): 200 nM
- GI50 (UACC-257): 513 nM
- CC50 (UACC-257; [1]): 8130 nM
- TGI (UACC-257; read-out: pTGI (converted)): 2090 nM
- GI50 (UACC-62): 229 nM
- CC50 (UACC-62; [1]): 9120 nM
- TGI (UACC-62; read-out: pTGI (converted)): 646 nM
- GI50 (IGROV-1): 490 nM
- CC50 (IGROV-1; [1]): 8130 nM
- TGI (IGROV-1; read-out: pTGI (converted)): 1820 nM
- GI50 (OVCAR-3): 372 nM
- CC50 (OVCAR-3; [1]): 5250 nM
- TGI (OVCAR-3; read-out: pTGI (converted)): 1510 nM
- GI50 (OVCAR-4): 851 nM
- CC50 (OVCAR-4; [1]): 38000 nM
- TGI (OVCAR-4; read-out: pTGI (converted)): 6310 nM
- GI50 (OVCAR-8): 129 nM
- CC50 (OVCAR-8; [1]): 21900 nM
- TGI (OVCAR-8; read-out: pTGI (converted)): 851 nM
- GI50 (SK-OV-3): 2820 nM
- CC50 (SK-OV-3; [1]): 37200 nM
- TGI (SK-OV-3; read-out: pTGI (converted)): 7940 nM
- GI50 (A498): 525 nM
- CC50 (A498; [1]): 5250 nM
- TGI (A498; read-out: pTGI (converted)): 1580 nM
- GI50 (ACHN): 776 nM
- CC50 (ACHN; [1]): 32400 nM
- TGI (ACHN; read-out: pTGI (converted)): 7240 nM
- GI50 (CAKI-1): 251 nM
- CC50 (CAKI-1; [1]): 3390 nM
- TGI (CAKI-1; read-out: pTGI (converted)): 676 nM
- GI50 (RXF 393): 339 nM
- CC50 (RXF 393; [1]): 18200 nM
- TGI (RXF 393; read-out: pTGI (converted)): 1290 nM
- GI50 (TK-10): 646 nM
- CC50 (TK-10; [1]): 11000 nM
- TGI (TK-10; read-out: pTGI (converted)): 2090 nM
- GI50 (DU-145): 1410 nM
- CC50 (DU-145; [1]): 18200 nM
- TGI (DU-145; read-out: pTGI (converted)): 5500 nM
- GI50 (MCF7): 1580 nM
- CC50 (MCF7; [1]): 25700 nM
- TGI (MCF7; read-out: pTGI (converted)): 6030 nM
- GI50 (MDA-MB-231): 229 nM
- CC50 (MDA-MB-231; [1]): 9120 nM
- TGI (MDA-MB-231; read-out: pTGI (converted)): 603 nM
- GI50 (MDA-MB-435): 170 nM
- CC50 (MDA-MB-435; [1]): 4470 nM
- TGI (MDA-MB-435; read-out: pTGI (converted)): 832 nM
- GI50 (BT-549): 794 nM
- CC50 (BT-549; [1]): 11000 nM
- TGI (BT-549; read-out: pTGI (converted)): 2400 nM
- GI50 (T47D): 1510 nM
- CC50 (T47D; [1]): 47900 nM
- TGI (T47D; read-out: pTGI (converted)): 7240 nM
- GI50 (786-0): 288 nM
- CC50 (786-0; [1]): 3980 nM
- TGI (786-0; read-out: pTGI (converted)): 1100 nM
- GI50 (PC-3): 191 nM
- CC50 (PC-3; [1]): 10000 nM
- TGI (PC-3; read-out: pTGI (converted)): 1100 nM
